Columns and labels:
T7 RNA polymerase = T7 RNA polymerase (Escherichia phage T7, UniProt P00573); details: ribonucleotide triphosphates, FIG. 7
[1] = PCR incorporation of d5SICS α-thiotriphosphate opposite dNaM; type: biochemical; details: standard PCR
Experimental: The amplification efficiency and fidelity of incorporation of d(5SICS-αS)TP is greater than 99% and virtually identical to results obtained with d5SICS. To functionalize this unnatural base pair, we reacted the site-specifically incorporated phosphorothioate bond with iodoacetyl-PEG2-biotin to label the DNA duplex with the biotin functionality.^8 To characterize this site-specific adduct, we incubated it in the presence of streptavidin and then quantified the functionalization by gel shift assay. We were able to convert 60-70% of the phosphorothioate bond to the functionalized derivative, which is a standard efficiency (70%) for labeling protocols previously reported in literature (See Fidanza, J. A.; Ozaki, H.; McLaughlin, L. W., Site-specific labeling of DNA sequences containing phosphorothioate diesters. J. Am. Chem. Soc. […], 114 (14), 5509-5517.). These conjugated derivatives show high stability under conditions typical for heat denaturation of DNA duplexes, i.e. at 50° C. overnight within the range of pH 6.0-8.3 (<10% decomposition), as well as for at 95° C. for 3 minutes at pH 8.3 (<5% decomposition). We envision that the phosphorothioate strategy can be equally well employed with other unnatural base pairs, including d5SICS-dMMO2 and d5SICS-dNaM.

Sequence of T7 RNA polymerase (P00573 whole entry): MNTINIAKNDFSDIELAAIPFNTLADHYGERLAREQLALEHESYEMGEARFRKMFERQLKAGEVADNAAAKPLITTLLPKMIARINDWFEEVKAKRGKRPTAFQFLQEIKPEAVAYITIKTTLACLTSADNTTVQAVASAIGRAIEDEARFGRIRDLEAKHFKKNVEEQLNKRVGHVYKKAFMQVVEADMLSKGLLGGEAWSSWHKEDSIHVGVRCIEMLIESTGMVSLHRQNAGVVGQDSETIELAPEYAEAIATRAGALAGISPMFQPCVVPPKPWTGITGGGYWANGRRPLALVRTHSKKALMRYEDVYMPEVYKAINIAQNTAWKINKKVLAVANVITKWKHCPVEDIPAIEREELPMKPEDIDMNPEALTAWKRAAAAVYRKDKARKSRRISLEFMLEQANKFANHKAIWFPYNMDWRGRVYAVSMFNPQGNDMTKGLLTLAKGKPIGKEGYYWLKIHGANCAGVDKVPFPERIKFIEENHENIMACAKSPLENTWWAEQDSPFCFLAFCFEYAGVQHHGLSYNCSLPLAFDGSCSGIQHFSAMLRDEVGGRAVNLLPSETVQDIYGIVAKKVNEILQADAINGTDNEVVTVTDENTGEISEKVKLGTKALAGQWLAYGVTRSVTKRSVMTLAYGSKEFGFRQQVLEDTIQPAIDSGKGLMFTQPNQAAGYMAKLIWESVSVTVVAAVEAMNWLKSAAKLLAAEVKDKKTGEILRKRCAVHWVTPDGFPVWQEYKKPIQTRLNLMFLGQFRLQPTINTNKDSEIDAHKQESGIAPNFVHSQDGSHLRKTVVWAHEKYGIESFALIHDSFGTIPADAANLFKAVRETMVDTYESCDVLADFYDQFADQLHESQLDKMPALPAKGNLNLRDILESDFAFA

| Compound | transcription into RNA (T7 RNA polymerase) | amplification efficiency and fidelity of incorporation [1] |
| --- | --- | --- |
| COc1cc(C)c(C#CCNC(=O)C(Cl)Cl)cc1[C@@H]1O[C@H](COP(=O)(O)OP(=O)(O)OP(=O)(O)O)[C@@H](O)[C@H]1O [MMO2^PA] | high efficiency and fidelity | – |
| Cc1ccc2c(=S)n([C@H]3C[C@H](O)[C@@H](COP(O)(=S)OP(=O)(O)OP(=O)(O)O)O3)ccc2c1 (some centres unmarked) [d(5SICS-αS)TP] | – | greater than 99% |

Source: patent US11634451B2, “Method for the site-specific enzymatic labelling of nucleic acids in vitro by incorporation of unnatural nucleotides” (The Scripps Research Institute, priority 2013, dated 2023)
